This passage reports IC50 results from PubChem BioAssay AID2305 (GlaxoSmithKline (GSK), 2010).

SMILES strings stand for the structures. Values joined by “and” are separate entries in the source; they are usually repeats but may differ in a detail not shown here. Identical values can stand only once.

The test system of this assay is P. falciparum 3D7 growth, pLDH absorbance. The assay can be described thus: P. falciparum 3D7 growth inhibition, dose response, strain 3D7 (AID 2305).

The IC50 is the concentration needed to halve the response being measured.

The molecule `CC1(C)N=C(N)N=C(N)N1c1ccc([N+](=O)[O-])cc1` showed an IC50 of 230 nM. Regarding `COc1ccc2ncc(F)c(CCN3C[C@H](CNCc4nc5c(cc4Cl)OCC(=O)N5)[C@H](O)C3)c2n1`, the IC50 was 950 nM and 1280 nM and 830 nM. As to `CC(C)CCN=C(N)Nc1ccc(OCCCOc2ccc(NC(N)=NCCC(C)C)cc2)cc1`, the IC50 was 200 nM. For `Cc1c(CNCCCNc2nc3ccncc3[nH]2)sc(Br)c1Br`, the IC50 came out at 1040 nM. For the molecule `COc1ccc2cc(C(=O)NC3CCC(CCN4CCc5cc(C#N)ccc5C4)CC3)[nH]c2c1` (stereo unspecified), the half-inhibitory concentration (IC50) came to 1010 nM. Under `CCCCCCC(C)(C)c1cc(O)c2c3c(c(=O)oc2c1)CCN(Cc1ccccc1)C3` stands 220 nM; under `CC1(C)N=C(N)N=C(N)C1c1ccc(Cl)c(Cl)c1` (stereo unspecified), 30 nM; under `COCCNCc1cccc(-c2cccc(CNC3CCN(Cc4ccccc4)CC3)c2)c1`, 280 nM. In the case of `NC1CCN(CCNCc2cccc(-c3ccc(-c4nc5ccc(C(F)(F)F)cc5[nH]4)cc3)c2)C1` (stereo unspecified), the IC50 is 890 nM. In turn, `Cc1[nH]c(C)c(-c2ccc(OCc3cc(F)cc(F)c3)nc2)c(=O)c1Cl` came in with an IC50 of 90 nM.

As to `COc1ccc(C2c3ccccc3-c3nc(N)nc(N)c3C2C)cc1` (stereo unspecified), the IC50 came out at 240 nM. The figure for `CC(C)(C)c1cc2cc(Nc3ccnc4cc(-c5nccs5)ccc34)ccc2[nH]1` is 440 nM. `CCOC(=O)c1cc(C(=O)NCCCCN2CCC(c3cn(C)c4ccccc34)CC2)ccc1-c1ccc(C(F)(F)F)cc1` came in with a half-inhibitory concentration (IC50) of 1200 nM. For `CC1=C(C(=O)NC2CCC(CN3CCC(c4c[nH]c5ccccc45)CC3)CC2)Cc2ccccc21` (stereo unspecified), the half-maximal inhibitory concentration (IC50) was 830 nM and 1000 nM. Under `Cc1cnc(C(=O)Nc2ccc(-c3cccc(-c4nc5ccccc5[nH]4)c3)cc2)cn1` stands 830 nM; under `COc1ccc(OC)c(Cc2c(C)nc3nc(N)nc(N)c3c2C)c1`, 860 nM; under `CC(C)(C)CNCC(C)(C)c1nc(-c2ccc(Cl)c(O)c2)c(-c2ccncc2)[nH]1`, 600 nM. `O=C(Cc1cc(F)cc(F)c1)NC1CCN(c2ccnc3cc(Cl)ccc23)C1` (stereo unspecified) registered an IC50 of 250 nM. The figure for `CCCN1CCN(CC(O)CNC(=O)Nc2ccc(Br)cc2)CC1` (stereo unspecified) is 60 nM.

As to `Cc1c(C(=O)N[C@@H](C)c2ccccc2)c2cc(O)c(Br)cc2n1C1CCCCC1`, the half-maximal inhibitory concentration (IC50) was found to be 840 nM. With `C(=N\Nc1nccc2sc(-c3cccnc3)cc12)/c1cccnc1`, the concentration for half-maximal inhibition (IC50) was 420 nM.

The molecule `c1ccc2c(c1)CN(Cc1ccsc1)CC1(CCN(Cc3c[nH]c4cnccc34)CC1)O2` showed a half-inhibitory concentration (IC50) of 1150 nM. This IC50 is about 2.7-fold higher than that of the molecule before. Take `O=C1OC2(CN1CC1CCN(Cc3ccc(O)c(Cl)c3)CC1)c1ccccc1-c1ccccc12`: the IC50 is 760 nM. With `Cc1c(C)c2c(c(C)c1O)CCC(C)(CCC(=O)O)O2` (stereo unspecified), the IC50 was determined as 690 nM. The figure for `O=C(Nc1ccc(CN2CCCCC2)cc1)c1ccc(COc2ccc([N+](=O)[O-])cc2)o1` is 1000 nM.

Turning to `COc1cc(CS(C)(=O)=O)ccc1Nc1nccc(-c2c(-c3cccc(NC(=O)c4c(F)cccc4F)c3)nn3ccccc23)n1`, the IC50 was determined as 970 nM.

In the case of `CCc1cccc(-c2cc(=N)n(C)c3nc(N)[nH]c(=O)c23)c1`, the half-maximal inhibitory concentration (IC50) amounted to 1120 nM. `c1cc(CN2CCN(c3ccncc3)CC2)cc(-c2ccc(-c3nc4ccccc4[nH]3)cc2)c1` yielded an IC50 of 150 nM. Against the preceding molecule, the IC50 is about 7.5-fold lower. Regarding `N/C(=N/C(=NCCCCCCN=C(/N=C(/N)Nc1ccc(Cl)cc1)N1CCOCC1)N1CCOCC1)Nc1ccc(Cl)cc1`, the half-maximal inhibitory concentration (IC50) amounted to 710 nM.

For the molecule `O=C(Nc1cccnc1)c1cc(-c2cccnc2)nc2ccc(Br)cc12`, the IC50 was found to be 640 nM. In the case of `O=[N+]([O-])c1ccc(-n2nc(Cc3ccccc3)n(Cc3cccc(F)c3)c2=S)c(C(F)(F)F)c1`, the IC50 came out at 770 nM. `CCOC(=O)c1cn(CC)c2cc(F)c(OC3C[C@@H]4CC[C@@]3(C)C4(C)C)cc2c1=O` (stereo partly specified): the IC50 stood at 930 nM. On to `Cc1cccc2[nH]c(-c3ccc(-c4ccc(CN5CCN(C6CCN(C)CC6)CC5)cc4)cc3)nc12`, for which the half-inhibitory concentration (IC50) was 100 nM. This IC50 is about 9.3-fold lower than that of the molecule before. For the molecule `Cc1[nH]cc(Br)c(=O)c1-c1ccc(Oc2ccccc2)cc1`, the IC50 is 680 nM. This IC50 lies about 6.8-fold higher than the previous one.

In the case of `CN(C)C=Nc1ccc(OCCCCCCOc2ccc(N=CN(C)C)cc2)cc1`, the half-maximal inhibitory concentration (IC50) was determined as 130 nM. The figure for `CC(C)C[C@@H](/C=N/N1CCOC1=O)NC(=O)[C@H](CC(C)C)NC(=O)c1ccc(OCCN2CCOCC2)cc1` is 220 nM; for `COc1ccc(CNC2CCN(C)CC2)cc1-c1ccc(S(=O)(=O)NC2CCC2)cc1` it is 880 nM. The figure for `Cn1c(NC(=O)C2CCC(CNC(=O)c3ccc(O)c(-c4ccc(Cl)c(Cl)c4)c3)CC2)nc2ccccc21` (stereo unspecified) is 650 nM; for `COc1ccc2nccc(NCC3(O)CCC(NCc4cc5c(cn4)OCCO5)CC3)c2n1` (stereo unspecified) it is 660 nM.

In turn, `COc1ccc(NC(=O)Nc2nc(-c3ccc(Cl)c(C)c3)cs2)cc1N1CCN(C)CC1` gave an IC50 of 270 nM. Against the preceding molecule, the IC50 is about 2.4-fold lower. `COc1cc(-c2cc(-c3ccc(S(C)(=O)=O)cc3)cnc2N)ccc1O` had an IC50 of 100 nM.

`CC(Cc1ccc(OCCN2CCN(c3cccc(Cl)c3)CC2)cc1)NCC(O)c1cccc(Cl)c1` (stereo unspecified) gave a 50% inhibitory concentration (IC50) of 1210 nM.

`ON=C1c2cc(OCCN3CCCCC3)c(Cl)cc2-c2cc(Cl)c(OCCN3CCCCC3)cc21`: the concentration for half-maximal inhibition (IC50) stood at 700 nM. This IC50 is about 1.7-fold lower than that of the molecule before. In the case of `O=c1cc(NCCCNCc2ccc(Cl)c(Cl)c2)[nH]c2ccc(C(F)(F)F)cc12`, the half-inhibitory concentration (IC50) is 520 nM. `CO/N=C(\C)c1ccc2c(c1)CCN(CCC1CCC(NC(=O)c3cccc(-c4noc(C)n4)c3)CC1)CC2` (stereo unspecified) came in with an IC50 of 240 nM. In turn, `CCn1c(C2CCN(CCC3CCN(C(=O)/C=C/c4ccc(Cl)c(Cl)c4)CC3)CC2)nc2ccccc21` yielded a half-inhibitory concentration (IC50) of 1080 nM.

Molecule `CC1CN(Cc2cccc(F)c2)CCN1c1ccc(NC(=O)c2cccs2)cc1` (stereo unspecified) displayed an IC50 of 450 nM. This IC50 is about 2.4-fold lower than that of the molecule before. For the molecule `CN1CCN(CC(=O)Nc2ccc(-c3ccc(-c4nc5ccc(C(F)(F)F)cc5[nH]4)cc3)cc2)CC1`, the 50% inhibitory concentration (IC50) is 420 nM.

`CCCCCCCN(Cc1ccc(OC(C)(C)C(=O)OCC)cc1)C(=O)Cc1ccc(F)cc1F` registered a half-inhibitory concentration (IC50) of 1030 nM. Under `COc1ccc(-c2c3c(=O)n(C)c(=O)n(C)c3c3nnc4ccccc4n23)cc1` stands 990 nM; under `COc1ccc(S(=O)(=O)N2CCOCC2)cc1NC(=O)c1cc2ccccc2o1`, 790 nM; under `COc1cccc(CNC[C@@H](O)[C@H](Cc2ccccc2)NC(=O)c2cc(C(C)C)cc(N3CCCC3=O)c2)c1`, 950 nM. With `CCNC(=O)Nc1ccc(N(C)c2ccnc(Nc3ccc(CS(C)(=O)=O)cc3)n2)cc1`, the IC50 stood at 90 nM. The figure for `NCCNS(=O)(=O)c1ccc(-c2ccnc3[nH]c(-c4ccncc4)cc23)cc1` is 840 nM; for `CC(C)c1ccc(C=CC(=O)NC2CCC(CN3CCC(c4c[nH]c5ccccc45)CC3)CC2)cc1` (stereo unspecified) it is 810 nM; for `CCOC(=O)c1ccc(NC(=O)Nc2cccc(-c3ccc(-c4nc5c(C)cccc5[nH]4)s3)c2)cc1` it is 140 nM. `CCCCCCn1c2c(c(=N)c3c1CCC3)CCCC2` had an IC50 of 290 nM. Under `O=C(NC1CCC(CN2CCC(c3c[nH]c4ccccc34)CC2)CC1)c1csc(-c2cccc(Cl)c2Cl)n1` (stereo unspecified) stands 1730 nM; under `COc1cccc(-c2ccc(O)c(CNCCc3cccc(F)c3)c2)n1`, 910 nM. The figure for `O=S(=O)(NCCN1CCCC1)c1ccc(-c2cccc(CNCc3ccc(F)cc3)c2)s1` is 760 nM. `Oc1ccc(Br)cc1C(O)CNCc1ccccc1OCc1ccccc1` (stereo unspecified) registered an IC50 of 170 nM. With `C=C(C)CSc1nc2c(c(=O)n1Cc1ccco1)C1(CCCCC1)Cc1ccccc1-2`, the IC50 is 1000 nM. On to `Cn1nccc1C(=O)NCCNCc1cccc(-c2ccc(-c3nc4ccc(C(F)(F)F)cc4[nH]3)s2)c1`, for which the IC50 worked out at 150 nM.

`COc1cc(C2NCC3(CCOCC3)c3cc4c(cc32)OCCO4)cc(OC)c1OC` (stereo unspecified) showed an IC50 of 170 nM. The molecule `Cc1cc(N[C@@H](Cc2ccccc2)C(=O)NCCc2ccccc2)nc(NCCc2ccc(F)cc2)n1` registered an IC50 of 660 nM. This IC50 lies about 3.9-fold higher than the previous one. `Cc1c(CC(=O)NCCC2CCN(CCCCCNC(=O)/C=C/c3ccc(Cl)c(Cl)c3)CC2)sc2ccc(Cl)cc12` gave a 50% inhibitory concentration (IC50) of 880 nM. The IC50 values of the last two molecules are within 1.5-fold of each other. In turn, `CCCCCCC(C)(C)c1cc(O)c2c(c1)OC(C)(C)c1ccncc1-2` registered an IC50 of 180 nM. For `CN1CCCC1CNS(=O)(=O)c1ccc(C(=O)NCC2CC2)cc1` (stereo unspecified), the IC50 turned out to be 170 nM. The IC50 values of the last two molecules are within 1.5-fold of each other. `CN(CCN1CCC(c2c[nH]c3ccccc23)CC1)c1ccc(-c2nc3cc(Cl)c(Cl)cc3[nH]2)cc1`: the concentration for half-maximal inhibition (IC50) worked out at 120 nM.

Molecule `CCOc1ccc(NC(=O)c2cccc(CN3CCCN(Cc4cccc(O)c4)CC3)c2)cc1` came in with an IC50 of 1080 nM.

`Cc1cc(O)c(CN(C)Cc2ccc(N(C)C)cc2)cc1C(C)C` yielded a half-maximal inhibitory concentration (IC50) of 550 nM.

Take `CNCc1ccc(CN(C)c2nc(N)c3cc(OC)c(OC)cc3n2)cc1`: the IC50 came out at 1030 nM. On to `O=C(NC1CCC(CN2CCC(c3c[nH]c4ccccc34)CC2)CC1)C1(O)c2ccccc2-c2ccccc21` (stereo unspecified), for which the IC50 was determined as 1190 nM. This IC50 and that of the molecule before are within 1.5-fold of each other. `O=C(/C=C/c1ccc(Cl)c(Cl)c1)NCCCCCCN1CCCN(C(=O)Nc2cccc(C(F)(F)F)c2)CC1`: the IC50 was found to be 790 nM. Turning to `CCN1CCC(N(Cc2ccc(-c3ccc(C(F)(F)F)cc3)cc2)C(=O)CCCCn2c(CCc3cccc(F)c3F)nc(=O)c3ccccc32)CC1`, the IC50 was found to be 990 nM. For the molecule `CCCN(CCC)S(=O)(=O)c1ccc(C(=O)N2CCC(C(=O)OCC)CC2)cc1`, the 50% inhibitory concentration (IC50) was determined as 800 nM. The figure for `CCc1ccc(C2CCN(CCCCNC(=O)c3ccc(NC(=O)c4ccc(Cl)cc4)cc3)CC2)cc1` is 650 nM. The molecule `COc1ccc(Cn2cncc2CN(CCC(C)C)C(=O)c2ccc(Cl)nc2Cl)cc1` displayed an IC50 of 1040 nM. Molecule `CC(C)COc1ccc(Cl)cc1Cc1ccc(-c2nc3ccc(CCN(C)C)cc3[nH]2)o1` returned an IC50 of 980 nM.

As for `CCOC(=O)C(C(=O)OCC)c1nc(C)ns1`, the half-inhibitory concentration (IC50) is 470 nM. `COc1ccc(CNCc2cccc(-c3ccc(-c4nc5ccccc5[nH]4)s3)c2)cc1`: the IC50 turned out to be 820 nM. `COc1ccc(-c2cccc(NC(=O)c3ccc(C#N)cc3)c2)cc1CN(C)CCN(C)C`: the half-maximal inhibitory concentration (IC50) was determined as 70 nM. `COc1ccc(-c2ccnc(-c3cccc(-c4ccccn4)n3)c2)cc1` yielded an IC50 of 820 nM.

Consider `COC(=O)c1ccc(-c2ccc(C(=O)NCC3CCN(c4nc(N)c5cc(OC)c(OC)cc5n4)CC3)cc2)cc1`, for which the half-maximal inhibitory concentration (IC50) is 180 nM. `O=C(/C=C/c1ccc(Cl)c(Cl)c1)N1CCC(CCN2CCC(c3c[nH]c4ccccc34)CC2)CC1`: the 50% inhibitory concentration (IC50) is 600 nM. The molecule `O=C(CC1SC(N2N=C(c3cccs3)CC2c2ccccc2)=NC1=O)Nc1ccc(Cl)cc1` (stereo unspecified) displayed an IC50 of 1680 nM.
